row,melting point [°C],Compound
1,50 to 53,"CCCCC1=NC2(CCCC2)C(=O)N1CCc1ccc(OC(C)(C)C(=O)O)cc1 [Compound 3, 2-butyl-1-[2-(4-((1-carboxy-1,1-dimethylmethyl)oxy)phenyl)ethyl]-4-spirocyclopentyl-1H-imidazol-5(4H)-one]"
2,74 to 80,"CCCCC1=NC2(CCCC2)C(=O)N1Cc1ccc(-c2ccccc2OC(C)(C)C(=O)O)cc1 [Compound 6, 2-butyl-1-[(2′-((1-carboxy-1,1-dimethylmethyl)oxy)biphenyl-4-yl)methyl]-4-spirocyclopentyl-1H-imidazol-5(4H)-one]"
3,85 to 90,"CCCCC1=NC2(CCCC2)C(=O)N1Cc1ccc(C(=O)c2ccccc2OC(C)(C)C(=O)O)cc1 [Compound 7, 2-butyl-1-[[4-[(2-((1-carboxyl-1,1-dimethylmethyl)oxy)phenyl)carbonyl]phenyl]methyl]-4-spirocyclopentyl-1H-imidazol-5(4H)-one]"
4,90 to 99,"CCCCC1=NC2(CCCC2)C(=O)N1Cc1ccc(C(=O)c2ccc(OC(C)(C)C(=O)O)cc2)cc1 [Compound 9, 2-butyl-1-[[4-[(4-((1-carboxyl-1,1-dimethylmethyl)oxy)phenyl)carbonyl]phenyl]methyl]-4-spirocyclopentyl-1H-imidazol-5(4H)-one]"
5,68 to 75,"CCCCC1=NC2(CCCCC2)C(=O)N1Cc1ccc(C(=O)c2cccc(OC(C)(C)C(=O)O)c2)cc1 [Compound 11, 2-butyl-1-[[4-[(3-((1-carboxyl-1,1-dimethylmethyl)oxy)phenyl)carbonyl]phenyl]methyl]-4-spirocyclohexyl-1H-imidazol-5(4H)-one]"
6,174 to 176,"CCCCC1=NC2(CCCC2)C(=O)N1Cc1ccc(-c2cc(OC(C)(C)C(=O)O)ccc2Br)cc1 [Compound 12, 1-[(6′-bromo-3′-((1-carboxy-1,1-dimethylmethyl)oxy)biphenyl-4-yl)methyl]-2-butyl-4-spirocyclopentyl-1H-imidazol-5(4H)-one]"
7,167 to 169,"CCCCC1=NC(C)(C)C(=O)N1Cc1ccc(C(=O)c2cccc(OC(C)(C)C(=O)O)c2)cc1 [Compound 14, 2-butyl-1-[[4-[(3-((1-carboxyl-1,1-dimethylmethyl)oxy)phenyl)carbonyl]phenyl]methyl]-4,4-dimethyl-1H-imidazol-5(4H)-one]"
8,115 to 120,"CCCCC1=NC(c2ccccc2)C(=O)N1Cc1ccc(C(=O)c2cccc(OC(C)(C)C(=O)O)c2)cc1 (centres unmarked) [Compound 15, 2-butyl-1-[[4-[(3-((1-carboxy-1,1-dimethylmethyl)oxy)phenyl)carbonyl]phenyl]methyl]-4-phenyl-1H-imidazol-5(4H)-one]"
9,134 to 190,"CCCC1=NC2(CCCC2)C(=O)N1Cc1ccc(-c2cccc(OC(C)(C)C(=O)O)c2)cc1 [Compound 16, 1-[(3′-((1-carboxy-1,1-dimethylmethyl)oxy)biphenyl-4-yl)methyl]-2-propyl-4-spirocyclopentyl-1H-imidazol-5(4H)-one]"
10,81 to 88,"CC1=NC2(CCCC2)C(=O)N1Cc1ccc(-c2cccc(OC(C)(C)C(=O)O)c2)cc1 [Compound 18, 1-[(3′-((1-carboxy-1,1-dimethylmethyl)oxy)biphenyl-4-yl)methyl]-2-methyl-4-spirocyclopentyl-1H-imidazol-5(4H)-one]"
11,215 to 217,"CCCCC1=NC(c2ccccc2)C(=O)N1Cc1ccc(C(=O)c2ccc(OC(C)(C)C(=O)O)cc2)cc1 (centres unmarked) [Compound 20, 2-butyl-1-[[4-[(4-((1-carboxy-1,1-dimethylmethyl)oxy)phenyl)carbonyl]phenyl]methyl]-4-phenyl-1H-imidazol-5(4H)-one]"
12,170 to 172,"CCCCC1=NC2(CCCCC2)C(=O)N1Cc1ccc(-c2cc(OC(C)(C)C(=O)O)ccc2Br)cc1 [Compound 22, 1-[(6′-bromo-3′-((1-carboxy-1,1-dimethylmethyl)oxy)biphenyl-4-yl)methyl]-2-butyl-4-spirocyclohexyl-1H-imidazol-5(4H)-one]"
13,128 to 130,"CCCCC1=NC2(CCCC2)C(=O)N1Cc1ccc(-c2cccc(OCC#N)c2)cc1 [Compound 23, 2-butyl-1-[(3′-(cyanomethoxy)biphenyl-4-yl)methyl]-4-spirocyclopentyl-1H-imidazol-5(4H)-one]"
14,199 to 201,"CCCCC1=NC(c2ccccc2)C(=O)N1Cc1ccc(-c2cc(Br)ccc2OC(C)(C)C(=O)O)cc1 (centres unmarked) [Compound 26, 1-[(5′-bromo-2′-((1-carboxy-1,1-dimethylmethyl)oxy)biphenyl-4-yl)methyl]-2-butyl-4-phenyl-1H-imidazol-5(4H)-one]"
15,213 to 216,"CC(C)CC1=NC2(CCCC2)C(=O)N1Cc1ccc(-c2cccc(OC(C)(C)C(=O)O)c2)cc1 [Compound 27, 1-[(3′-((1-carboxy-1,1-dimethylmethyl)oxy)biphenyl-4-yl)methyl]-2-(2-methyl)propyl-4-spirocyclopentyl-1H-imidazol-5(4H)-one]"
16,149 to 153,"CC(C)(Oc1cccc(-c2ccc(CN3C(=O)C4(CCCC4)N=C3Cc3ccccc3)cc2)c1)C(=O)O [Compound 28, 2-benzyl-1-[(3′-((1-carboxy-1,1-dimethylmethyl)oxy)biphenyl-4-yl)methyl]-4-spirocyclopentyl-1H-imidazol-5(4H)-one]"
17,175 to 177,"CC(C)(Oc1cccc(-c2ccc(CN3C(=O)C4(CCCC4)N=C3C3CC3)cc2)c1)C(=O)O [Compound 29, 1-[(3′-((1-carboxy-1,1-dimethylmethyl)oxy)biphenyl-4-yl)methyl]-2-cyclopropyl-4-spirocyclopentyl-1H-imidazol-5(4H)-one]"
18,147 to 149,CCCCC1=NC2(CCCC2)C(=O)N1Cc1ccc(Cc2ccc(OC(C)(C)C(=O)O)cc2)cc1 [Compound 31]
19,82 to 85,"CCCCC1=NC2(CCCCC2)C(=O)N1Cc1ccc(-c2cccc(OCC(=O)O)c2)cc1 [Compound 52, 2-butyl-1-[(3′-((1-carboxymethyl)oxy)biphenyl-4-yl)methyl]-4-spirocyclohexyl-1H-imidazol-5(4H)-one]"
20,170,"CCCCC1=NC2(CCCCC2)C(=O)N1Cc1ccc(-c2cccc(OC(CC)C(=O)O)c2)cc1 (centres unmarked) [Compound 54, 2-butyl-1-[(3′-((1-carboxy-1-ethylmethyl)oxy)biphenyl-4-yl)methyl]-4-spirocyclohexyl-1H-imidazol-5(4H)-one]"
21,105,"CCCCC1=NC2(CCCCC2)C(=O)N1Cc1ccc(-c2cccc(OC(C(=O)O)C(C)C)c2)cc1 (centres unmarked) [Compound 55, 2-butyl-1-[(3′-((1-carboxy-1-(1,1-dimethylmethyl)methyl)oxy)-biphenyl-4-yl)methyl]-4-spirocyclohexyl-1H-imidazol-5(4H)-one]"
22,102 to 105,"CCCCC1=NC2(CCCCC2)C(=O)N1Cc1ccc(-c2cc(OCC(=O)O)ccc2F)cc1 [Compound 56, 2-butyl-1-[(3′-((1-carbonylmethyl)oxy)-6′-fluoro-biphenyl-4-yl)methyl]-4-spirocyclohexyl-1H-imidazol-5(4H)-one]"
23,96,"CCCCC1=NC2(CCCCC2)C(=O)N1Cc1ccc(-c2cc(OC(C)C(=O)O)ccc2F)cc1 (centres unmarked) [Compound 57, 2-butyl-1-[(3′-((1-carboxy-1-methylmethyl)oxy)-6′-fluoro-biphenyl-4-yl)methyl]-4-spirocyclohexyl-1H-imidazol-5(4H)-one]"
